The text below walks through data of patent publication US8937039B2, “Peptide-based peroxidase inhibitors and methods of using same” (The Medical College of Wisconsin, Inc., priority 2009, dated 2015).

The structures appear in SMILES notation. Entries after “also recorded” stand apart in the source; their conditions may differ. Residues, ends and D or L forms follow the SMILES beside them.

One experiment deals with lung cancer mice. Description: BHT-treated lung cancer mice (BALF activities, tumor number). In kind it is in vivo, mouse. Here is the method:
Inhibiting MPO decreases PMN degranulation in lung cancer mice. PMNs are considered to play a causal role in initiating tumor formation. Effects of KYC on PMN recruitment and tumor formation in lung cancer mice were determined. Briefly, mice were treated with BHT (single dose: 300 mg/kg) and KYC (0.3 mg/kg/d).

The next experiment has as its target T1, MPO (Homo sapiens, UniProt P05164).
T1 sequence (P05164 49-745): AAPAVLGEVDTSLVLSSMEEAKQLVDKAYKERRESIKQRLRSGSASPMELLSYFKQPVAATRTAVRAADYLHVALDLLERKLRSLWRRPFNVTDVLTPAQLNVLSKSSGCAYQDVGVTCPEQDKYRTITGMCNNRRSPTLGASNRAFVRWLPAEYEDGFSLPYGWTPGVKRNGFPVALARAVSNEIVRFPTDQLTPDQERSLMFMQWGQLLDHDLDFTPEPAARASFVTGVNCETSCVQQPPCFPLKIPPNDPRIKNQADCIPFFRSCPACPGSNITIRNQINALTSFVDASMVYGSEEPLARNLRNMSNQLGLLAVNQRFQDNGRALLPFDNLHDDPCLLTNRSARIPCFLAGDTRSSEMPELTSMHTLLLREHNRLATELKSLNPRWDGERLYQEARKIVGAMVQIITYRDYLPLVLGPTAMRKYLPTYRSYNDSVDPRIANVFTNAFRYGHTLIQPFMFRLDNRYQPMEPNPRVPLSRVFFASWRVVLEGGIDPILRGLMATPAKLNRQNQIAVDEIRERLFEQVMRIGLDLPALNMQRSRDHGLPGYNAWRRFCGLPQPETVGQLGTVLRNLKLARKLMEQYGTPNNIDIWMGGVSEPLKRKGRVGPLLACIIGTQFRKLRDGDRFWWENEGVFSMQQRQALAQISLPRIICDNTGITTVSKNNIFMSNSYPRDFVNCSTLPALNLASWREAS
As to the kind of experiment: MPO-mediated nitration of LDL (dot blot). The experiment is classed as biochemical. More on the design: purchased Lee Biosolutions (St. Louis, Mo.). Particulars: MPO 50 nM, H2O2 50 μM, NaNO2 50 μM, 37° C., 4 h. The protocol:
MPO-mediated Nitration of LDL: LDL (0.5 mg/mL) was incubated with MPO (50 nM), H2O2 (50 μM), NaNO2 (50 μM) and increasing concentrations of KYC in phosphate buffer (100 mM, pH 7.4) containing DTPA (100 μM) at 37° C. for 4 h. Reactions were stopped by addition of catalase (2,000 units/mL). Formation of NO2Tyr was assessed by dot blot analysis. Briefly, LDL solutions were mixed with 1% SDS and centrifuged (12000 g, 15 min) Aliquots of supernatants were applied to a nitrocellulose membrane with a dot blot apparatus (Biorad model: Bio-Dot). The levels of NO2Tyr were visualized using a rabbit polyclonal anti-NO2Tyr antibody (EMD, Gibbstown, N.J.) and the ECL plus kit from Thermo-Peirce (Rockford, Ill.).

A further experiment addresses T2, NADPH oxidase (NOX) (Homo sapiens, UniProt P04839).
T2 construct: host or cells: HL-60 cells stimulated with PMA
T2 sequence (P04839 2-570 limits assumed): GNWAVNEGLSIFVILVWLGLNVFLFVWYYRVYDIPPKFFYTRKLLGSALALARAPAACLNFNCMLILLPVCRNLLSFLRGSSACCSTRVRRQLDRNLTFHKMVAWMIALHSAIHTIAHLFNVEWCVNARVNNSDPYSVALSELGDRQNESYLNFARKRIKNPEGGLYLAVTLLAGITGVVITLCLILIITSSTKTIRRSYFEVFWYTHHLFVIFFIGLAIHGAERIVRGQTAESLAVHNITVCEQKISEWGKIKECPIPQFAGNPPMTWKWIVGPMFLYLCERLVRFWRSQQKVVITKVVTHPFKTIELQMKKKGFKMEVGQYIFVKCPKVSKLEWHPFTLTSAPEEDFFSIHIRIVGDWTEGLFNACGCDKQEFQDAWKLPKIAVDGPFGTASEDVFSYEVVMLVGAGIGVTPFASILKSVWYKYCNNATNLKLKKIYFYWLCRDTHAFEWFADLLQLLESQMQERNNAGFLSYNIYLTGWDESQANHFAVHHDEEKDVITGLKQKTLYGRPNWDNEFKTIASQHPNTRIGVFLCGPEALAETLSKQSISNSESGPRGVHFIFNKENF
T2 sequence (P13498 2-195 partner limits assumed): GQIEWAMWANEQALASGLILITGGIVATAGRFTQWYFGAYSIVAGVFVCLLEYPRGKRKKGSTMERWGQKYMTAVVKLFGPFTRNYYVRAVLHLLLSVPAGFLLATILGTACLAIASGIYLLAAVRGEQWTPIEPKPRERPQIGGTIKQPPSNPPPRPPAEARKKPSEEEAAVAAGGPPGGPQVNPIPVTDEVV
As to the kind of experiment: PMA-stimulated HL-60 cell superoxide formation (SOD-inhibitable cytochrome C reduction). The experiment is classed as cell-based. Particulars: cytochrome C assay. The protocol: PMA-induced Superoxide Anion Formation. HL-60 cells were cultured in RPMI 1640 medium containing 10% FCS (passage 20-50). HL-60 cells were harvested by centrifugation (1000 rpm, 10 min), washed 2× with phosphate buffer (10 mM, pH 7.4) with NaCl (138 mM), KCl (2.67 mM), CaCl2 (0.901 mM), MgCl2 (0.493 mM) and glucose (1 mg/ml) to remove culture medium. The HL-60 cells (6×10^6/0.5 ml) were re-suspended in DPBS. After stimulation with PMA (10 μM), the HL-60 cells were incubated with cytochrome C (40 μM) with or without superoxide dismutase at 37° C. for 30 min. The reaction was stopped by centrifugation. Cytochrome C reduction was measured at 550 nm on a UV-Vis spectrophotometer (Agilent, Model 8453).
PMA-stimulated HL-60 cell O2.^− Formation: HL-60 cells were harvested by centrifugation (1000 rpm, 10 min), washed twice with DPBS with glucose to remove culture medium. The HL-60 cells (1.2×10^7/ml) were re-suspended in DPBS with glucose. After stimulation with PMA (10 μM), the HL-60 cells were incubated with cytochrome C (40 μM) with or without superoxide dismutase (500 units/mL) at 37° C. for 10 min and then the HL-60 cells were removed by centrifugation. Cytochrome C reduction in supernatants was measured at 550 nm using a UV-Vis spectrophotometer (Agilent, Model 8453).

[1] abbreviates: BHT 300 mg/kg single dose, KYC 0.3 mg/kg/d, after 3 days.

On to `CC(=O)N[C@@H](CCCCN)C(=O)N[C@@H](Cc1ccc(O)cc1)C(=O)N[C@@H](CS)C(N)=O` [KYC, N-acetyl Lysyltyrosylcysteine Amide] (Ac-Lys-Tyr-Cys-NH2), for which, in the experiment with lung cancer mice (6 weeks of KYC treatment, p=0.02), the “Decrease of the number of tumors vs untreated mice” value is on record as roughly 50%. In addition, in the experiment on lung cancer mice (setting [1]), the “Elastase activity in BALF (in words)” value is “significantly decreased”, the “MPO activity in BALF (in words)” value is “significantly decreased” and the “PMN number in BALF (in words)” value is given as “did not reduce”. The “NO2Tyr in LDL (in words)” value at MPO is on record as “markedly reduces”. Further, the “O2.− production in PMA-stimulated HL-60 cells (in words)” value at NADPH oxidase (NOX) is reported as “neither KYC nor KYC disulfide have any significant effect; also recorded: Neither KYC nor KYC disulfide had any significant effect”.
